Like-named read-outs stand apart in the source and are kept apart here.

Assay type in all cases: biochemical
In test [1] the target is T1, β-secretase(BACE) (Homo sapiens, UniProt P56817).
T1 construct: purchased Panvera
The test is described as follows: BACE Assay-2 (FS1 substrate, IC50 and Ki). The settings on record: procedure of Example 159, FS1 substrate; for Ki: read-out: Ki μM (159).

For test [2], the target named is T1, β-secretase(BACE). Briefly: BACE FS1% Inhibition Assay. To be noted: FS1 substrate; for inhibition at 0.3 µM / % Inhibition (FS) 0.3 μM: 0.3 μM test compound; for inhibition at 0.3 µM: read-out: % Inhibition (FS) 0.3 μM; for inhibition at 1 µM / % Inhibition (FS) 1 μM: 1 μM test compound; for inhibition at 1 µM: read-out: % Inhibition (FS) 1 μM; for inhibition at 3 µM / % Inhibition (FS) 3 μM: 3 μM test compound. The essentials: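 Percent inhibition at each tested concentration, referenced to enzyme-free blank and vehicle-only positive control. Reaction: compound and BACE (4 μg/mL working stock) mixed 20 min at room temperature before FS1 substrate (300 μg/mL working stock), then 1 h at room temperature.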

Test [3] addresses T1, β-secretase(BACE). The test is described as follows: BACE Assay-1 (MCA-substrate, IC50). The settings on record: procedure of Example 158; read-out: IC50 μM (158). Put shortly: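 Human BACE (work solution 10 μg/mL) with MCA-peptide substrate (stock 2.0 mg/mL) in 0.05 M citrate buffer, pH 5.0, with PEG8000. Fluorescence read at T0 and T60; compounds tested at multiple concentrations and IC50 calculated from these readings.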

The mark [4] stands for this setting: read-out: % Inhibition (FS) 3 μM.

T1 sequence (P56817 46-501): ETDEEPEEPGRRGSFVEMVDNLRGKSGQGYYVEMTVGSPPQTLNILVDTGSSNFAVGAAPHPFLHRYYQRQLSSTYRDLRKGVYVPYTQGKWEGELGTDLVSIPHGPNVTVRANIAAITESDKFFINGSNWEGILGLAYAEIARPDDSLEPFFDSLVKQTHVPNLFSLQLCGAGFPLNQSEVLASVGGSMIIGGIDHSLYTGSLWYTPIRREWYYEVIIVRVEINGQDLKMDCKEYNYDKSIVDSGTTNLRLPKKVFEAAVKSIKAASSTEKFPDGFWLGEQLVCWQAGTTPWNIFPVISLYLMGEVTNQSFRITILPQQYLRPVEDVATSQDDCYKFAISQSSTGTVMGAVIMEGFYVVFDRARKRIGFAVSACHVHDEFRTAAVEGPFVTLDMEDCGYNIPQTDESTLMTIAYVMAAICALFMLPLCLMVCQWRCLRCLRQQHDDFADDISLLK

Take `COc1ccccc1-c1ccc2c(c1)CN(C(CCC(=O)N(C)C1CCCCC1)C1CCCCC1)C(N)=N2` (stereo not shown) [Compound 227]: the Ki on β-secretase(BACE) [1] was 0.065 µM. Further, on β-secretase(BACE) [2], the inhibition at 0.3 µM worked out at 86% and the inhibition at 1 µM was found to be 109%. At β-secretase(BACE) [2] (setting [4]), the inhibition at 3 µM came out at 116%. Besides, the IC50 at β-secretase(BACE) [3] stood at 0.043 µM.
Take `CC(C)(C)OC(=O)NCC(c1ccccc1)N1Cc2cc(Oc3ccccc3)ccc2N=C1N` (stereo not shown) [Compound 258]: the Ki on β-secretase(BACE) [1] worked out at 0.33 µM. For the same compound, at β-secretase(BACE) [2], the “% Inhibition (FS) 0.3 μM” value is given as less than 30%, the “% Inhibition (FS) 1 μM” value is 46% and the “% Inhibition (FS) 3 μM” value was 72%. Moreover, the IC50 at β-secretase(BACE) [3] was 0.39 µM.
For the compound `CN(C(=O)c1cccc(CN2Cc3cc(-c4c(Cl)cccc4Cl)ccc3N=C2N)c1)C1CCCCC1` [Compound 259], the Ki at β-secretase(BACE) [1] was found to be 0.25 µM. On β-secretase(BACE) [2], the inhibition at 0.3 µM is less than 30% and the inhibition at 1 µM stood at 66%. For the same compound, on β-secretase(BACE) [2] (setting [4]), the inhibition at 3 µM was found to be 97%. The IC50 at β-secretase(BACE) [3] stood at 0.25 µM.
As to `CN(C(=O)c1cccc(CN2Cc3cc(-c4ccccc4Cl)ccc3N=C2N)c1)C1CCCCC1` [Compound 260], the Ki on β-secretase(BACE) [1] is 0.21 µM. Also, at β-secretase(BACE) [2], the inhibition at 0.3 µM stood at 53% and the inhibition at 1 µM amounted to 86%. The inhibition at 3 µM on β-secretase(BACE) [2] (setting [4]) was 112%. Moreover, the IC50 on β-secretase(BACE) [3] is 0.15 µM.
With `NC1=Nc2ccc(Oc3ccccc3)cc2CN1C(CNC(=O)C1CCCCC1)C1CCCCC1` (stereo not shown) [Compound 294, Cyclohexanecarboxylic acid [2-(2-amino-6-phenoxy-4H-quinazolin-3-yl)-2-cyclohexyl-ethyl]-amide], on β-secretase(BACE) [1], the Ki is 0.02 µM. Also, at β-secretase(BACE) [2], the inhibition at 0.3 µM stood at 94% and the inhibition at 1 µM was 109%. For the same compound, on β-secretase(BACE) [2] (setting [4]), the inhibition at 3 µM was 118%. Moreover, the IC50 at β-secretase(BACE) [3] was determined as 0.016 µM.
`CN(C(=O)CCC(c1ccc(Cl)cc1)N1Cc2cc(Oc3ccccc3)ccc2N=C1N)C1CCCCC1` (stereo not shown) [Compound 297]: on β-secretase(BACE) [1], the Ki was found to be 0.12 µM. Further, at β-secretase(BACE) [2], the inhibition at 0.3 µM is less than 30% and the inhibition at 1 µM was determined as 76%. Moreover, the inhibition at 3 µM at β-secretase(BACE) [2] (setting [4]) was 109%. Besides, on β-secretase(BACE) [3], the IC50 came to 0.066 µM.
Taken in the same sequence, the figures for `COc1ccc(C(CCC(=O)N(C)C2CCCCC2)N2Cc3cc(Oc4ccccc4)ccc3N=C2N)cc1` (stereo not shown) [Compound 298] were 0.23 µM, less than 30%, 75%, 110% and 0.22 µM.
As to `CC(C)C(=O)NCC(C1CCCCC1)N1Cc2cc(Oc3ccccc3)ccc2N=C1N` (stereo not shown) [Compound 301], on β-secretase(BACE) [1], the Ki stood at 0.21 µM. Also, on β-secretase(BACE) [2], the “% Inhibition (FS) 0.3 μM” value was less than 30%, the “% Inhibition (FS) 1 μM” value was 82% and the “% Inhibition (FS) 3 μM” value is listed as 106%. Further, the IC50 at β-secretase(BACE) [3] came to 0.15 µM.
For `CCCC(CCC)C(=O)NCC(C1CCCCC1)N1Cc2cc(Oc3ccccc3)ccc2N=C1N` (stereo not shown) [Compound 302], the Ki at β-secretase(BACE) [1] worked out at 0.14 µM. In addition, at β-secretase(BACE) [2], the inhibition at 0.3 µM was less than 30% and the inhibition at 1 µM was 72%. Also, the inhibition at 3 µM at β-secretase(BACE) [2] (setting [4]) was determined as 108%. For the same compound, on β-secretase(BACE) [3], the IC50 stood at 0.05 µM.
Take `CCCCC(CC)C(=O)NCC(C1CCCCC1)N1Cc2cc(Oc3ccccc3)ccc2N=C1N` (stereo not shown) [Compound 303]: the Ki on β-secretase(BACE) [1] turned out to be 0.24 µM. Also, at β-secretase(BACE) [2], the inhibition at 0.3 µM is less than 30% and the inhibition at 1 µM amounted to 70%. The inhibition at 3 µM at β-secretase(BACE) [2] (setting [4]) was 109%. Besides, the IC50 on β-secretase(BACE) [3] stood at 0.062 µM.
With `NC1=Nc2ccc(Oc3ccccc3)cc2CN1C(CNC(=O)CC1CCCC1)C1CCCCC1` (stereo not shown) [Compound 311], at β-secretase(BACE) [1], the Ki was determined as 0.05 µM. Besides, at β-secretase(BACE) [2], the “% Inhibition (FS) 0.3 μM” value was 74%, the “% Inhibition (FS) 1 μM” value is given as 108% and the “% Inhibition (FS) 3 μM” value is 118%. For the same compound, on β-secretase(BACE) [3], the IC50 was 0.02 µM.
Take `CN(C(=O)c1cccc(CN2Cc3cc(-c4ccccc4CC#N)ccc3N=C2N)c1)C1CCCCC1` [Compound 325]: at β-secretase(BACE) [1], the Ki is 0.1 µM. Moreover, at β-secretase(BACE) [2], the inhibition at 0.3 µM is less than 30% and the inhibition at 1 µM was determined as 86%. The inhibition at 3 µM on β-secretase(BACE) [2] (setting [4]) turned out to be 110%. Moreover, on β-secretase(BACE) [3], the IC50 worked out at 0.089 µM.
Taken in the same sequence, the figures for `CCOc1ccccc1-c1ccc2c(c1)CN(Cc1cccc(C(=O)N(C)C3CCCCC3)c1)C(N)=N2` [Compound 329] were 0.02 µM, 92%, 109%, 118% and 0.012 µM.
As for `CN(C(=O)c1cccc(CN2Cc3cc(-c4cccc5ccccc45)ccc3N=C2N)c1)C1CCCCC1` [Compound 330], the Ki on β-secretase(BACE) [1] came to 0.21 µM. Also, at β-secretase(BACE) [2], the inhibition at 0.3 µM was less than 30% and the inhibition at 1 µM came out at 66%. In addition, on β-secretase(BACE) [2] (setting [4]), the inhibition at 3 µM was 114%. On β-secretase(BACE) [3], the IC50 amounted to 0.048 µM.
In the case of `CN(C(=O)c1cccc(CN2Cc3cc(-c4ccccc4Br)ccc3N=C2N)c1)C1CCCCC1` [Compound 331], the Ki at β-secretase(BACE) [1] came out at 0.19 µM. For the same compound, at β-secretase(BACE) [2], the inhibition at 0.3 µM is less than 30% and the inhibition at 1 µM came out at 60%. For the same compound, on β-secretase(BACE) [2] (setting [4]), the inhibition at 3 µM stood at 108%. Further, on β-secretase(BACE) [3], the IC50 worked out at 0.089 µM.
Regarding `CN(CCN1Cc2cc(Oc3ccccc3)ccc2N=C1N)C(=O)OC(C)(C)C` [Compound 425, [2-(2-Amino-6-phenoxy-4H-quinazolin-3-yl)-ethyl]-methyl-carbamic acid tert-butyl ester], the Ki at β-secretase(BACE) [1] was found to be 0.074 µM. Moreover, on β-secretase(BACE) [2], the inhibition at 0.3 µM stood at 46% and the inhibition at 1 µM was found to be 85%. The inhibition at 3 µM at β-secretase(BACE) [2] (setting [4]) was found to be 111%. Also, at β-secretase(BACE) [3], the IC50 stood at 0.14 µM.
The corresponding values for `CC(C)[C@H](CCC(=O)N(C)C1CCCCC1)N1Cc2cc(Oc3ccccc3)ccc2N=C1N` [Compound 450] are 0.019 µM, 97%, 112%, 121% and 0.011 µM.
Taken in the same sequence, the figures for `CN(C(=O)c1cccc(CN2Cc3cc(Sc4ccccc4)ccc3N=C2N)c1)C1CCCCC1` [Compound 476] were 0.28 µM, 19.9%, 66%, 102% and 0.067 µM.
As to `NC1=Nc2ccc(Oc3ccccc3)cc2CN1[C@@H](CNC(=O)C1CCCCC1)C1CCCCC1` [Compound 485, Cyclohexanecarboxylic acid [2-(2-amino-6-phenoxy-4H-quinazolin-3-yl)-2-(R)-cyclohexyl-ethyl]-amide], the inhibitory constant (Ki) at β-secretase(BACE) [1] is 0.017 µM. Further, at β-secretase(BACE) [2], the inhibition at 0.3 µM came to 100% and the inhibition at 1 µM is 112%. In addition, the inhibition at 3 µM on β-secretase(BACE) [2] (setting [4]) came to 123%. Besides, the IC50 on β-secretase(BACE) [3] was found to be 0.012 µM.
Regarding `COc1ccccc1-c1ccc2c(c1)CN(CCNC(=O)C1CCCCC1)C(N)=N2` [Compound 487], the Ki on β-secretase(BACE) [1] turned out to be 0.26 µM. For the same compound, on β-secretase(BACE) [2] (0.3 µM), the “% Inhibition (FS) 0.3 μM” value was less than 30%. At β-secretase(BACE) [2], the inhibition at 0.3 µM is 38% and the inhibition at 1 µM was 44%. The “% Inhibition (FS) 1 μM” value on β-secretase(BACE) [2] (1 µM) is given as 32%. Further, at β-secretase(BACE) [2] (3 µM), the “% Inhibition (FS) 3 μM” value is on record as 95%. Besides, the inhibition at 3 µM on β-secretase(BACE) [2] (setting [4]) was determined as 93%. Moreover, the IC50 on β-secretase(BACE) [3] is 0.36 µM.
Consider `C[C@H](CNC(=O)C1CCCCC1)N1Cc2cc(Oc3ccccc3)ccc2N=C1N` [Compound 495, (R)-Enantiomer of cyclohexanecarboxylic acid [2-(2-amino-6-phenoxy-4H-quinazolin-3-yl)-propyl]-amide], for which, at β-secretase(BACE) [1], the Ki was determined as 0.1 µM. Besides, on β-secretase(BACE) [2], the inhibition at 0.3 µM is less than 30% and the inhibition at 1 µM amounted to 75%. In addition, the inhibition at 3 µM at β-secretase(BACE) [2] (setting [4]) was 106%. Also, at β-secretase(BACE) [3], the IC50 is 0.25 µM.
As for `CC(C)CCC(=O)NC[C@@H](C(C)C)N1Cc2cc(Oc3ccccc3)ccc2N=C1N` [Compound 564], the Ki at β-secretase(BACE) [1] amounted to 0.011 µM. Further, at β-secretase(BACE) [2], the inhibition at 0.3 µM was 112% and the inhibition at 1 µM stood at 119%. In addition, the inhibition at 3 µM at β-secretase(BACE) [2] (setting [4]) amounted to 129%. Also, at β-secretase(BACE) [3], the IC50 stood at 0.018 µM.
Consider `CCCN1Cc2cc(Oc3cccc(NC(=O)CCCC(=O)N(C)C4CCCCC4)c3)ccc2N=C1N` [Compound 755], for which, on β-secretase(BACE) [1], the IC50 is 1.9 µM and the Ki amounted to 0.27 µM. For the same compound, at β-secretase(BACE) [2] (read-out: % Inhibition (FS)), the inhibition at 3 µM came out at 59%. On β-secretase(BACE) [2] (10 μM test compound, read-out: % Inhibition (FS)), the inhibition at 10 µM amounted to 79%. Besides, on β-secretase(BACE) [3], the IC50 was 0.21 µM.

The Ki is a dissociation constant, usually derived from enzyme kinetics or from competition with a known ligand. The term inhibition denotes the drop in the measured response relative to a control, in per cent. For orientation: IC50 means the concentration that gives 50% inhibition.

The values are drawn from patent US8383637B2, “2-amino-quinazoline derivatives useful as inhibitors of β-secretase (BACE)” (Jansssen Pharmaceutica N.V., priority 2004, dated 2013).
